According to article PMC4184574, “Enantioselectivity in the cytochrome P450-dependent conversion of tegafur to 5-fluorouracil in human liver microsomes” (Pharmacology Research & Perspectives, 2013):
Where “and” joins values, the source holds several entries; their conditions need not be identical. Identical values can stand only once.

Experiments:
[1] = 5-FU formation from FT enantiomers in human hepatic microsomes (kinetic analysis, formation rate); assay type: in vitro ADME; settings: for Km1 / Vmax1 / CLint1: high-affinity component; for CLint1: Vmax/Km; for Km2 / Vmax2: low-affinity component
Procedure: (§1) (pooled preparations from 20 donors; Kansas City, KS). […] Insect microsomes expressing only NADPH-P450 oxidoreductase and cytochrome b5 were also used as control. These enzymes were stored at −80°C until use.
(§2) 5-FU formed from FT was subjected to extensive metabolism by dihydropyrimidine dehydrogenase (DPD) contaminating human hepatic preparations. Therefore, a potent DPD inhibitor, CDHP, was always added to avoid the unexpected loss of 5-FU (Ikeda et al. [2000]; Yamamiya et al. [2010]). Incubation mixture for hepatic microsomal metabolism contained FT, microsomes (1 mg protein/mL), 0.1 mmol/L CDHP, and an NADPH-generating system consisting of 1.3 mmol/L β-NADP^+, 3.3 mmol/L glucose-6-phosphate, 3.3 mmol/L magnesium chloride, and 0.4 units glucose-6-phosphate dehydrogenase in 100 mmol/L Tris (pH 7.4). Metabolic reaction by S9 and cytosol (each 2 mg protein/mL) was carried out in 100 mmol/L phosphate (pH 7.4) because TPase requires phosphate ions for catalyzing the reaction. In some cases, insect microsomes expressing recombinant CYP isoforms (20 pmol/mL) were added to the incubation mixtures in either 50, 100 mmol/L phosphate (pH 7.4) or 100 mmol/L Tris (pH 7.4), depending on supplier's recommendation. […] The reaction for the assay of FT metabolism was initiated by adding the substrate, following preincubation for 5 min at 37°C. […] The incubation times of microsomes, cytosol, and S9 were 15, 15, and 30 min, respectively. After centrifugation, the supernatant was collected and stored at −80°C until the determination of 5-FU. Because a small portion of FT is nonenzymatically converted to 5-FU, the content of 5-FU spontaneously formed was subtracted from total yield obtained after incubation to correct the activity. The spontaneous degradation of FT to 5-FU was evaluated using enzymes inactivated by heating them at 100°C for 5 min.
(§3) Concentration of 5-FU was determined using a LC/MS/MS system. […] The mobile phase consisted of 10 mmol/L ammonium acetate/acetonitrile 10:90 (v/v). The MS/MS analysis was performed in negative ionization mode under multiple reaction monitoring (MRM) mode, using mass transitions, m/z 128.6/41.8 for 5-FU and m/z 130.6/42.8 for ^15N2-5-FU, an internal standard (IS). […] For quantification of 5-FU, the calibration curves were linear over the range 2–1000 ng/mL.
(§4) In determining kinetic parameters, FT concentration ranged from 0.03 to 10 mmol/L. All reactions were performed in a linear range of 5-FU formation with respect to protein or CYP concentrations and incubation time. Eadie–Hofstee plot analysis was used to characterize enzyme kinetics in which kinetic parameters were estimated by fitting the data to the following equations (1) or (2): [drawing 1] (1) [drawing 2] (2) where V is 5-FU formation rate, S is FT concentration in the incubation mixture, Km1 and Km2 are affinity constants for high- and low-affinity components, respectively, and Vmax1 and Vmax2 are maximum velocities for high- and low-affinity components, respectively.

[2] = 5-FU formation from FT enantiomers in pooled human hepatic cytosol; assay type: in vitro ADME
Procedure: as §1
5-FU formed from FT was subjected to extensive metabolism by dihydropyrimidine dehydrogenase (DPD) contaminating human hepatic preparations. Therefore, a potent DPD inhibitor, CDHP, was always added to avoid the unexpected loss of 5-FU (Ikeda et al. [2000]; Yamamiya et al. [2010]). Incubation mixture for hepatic microsomal metabolism contained FT, microsomes (1 mg protein/mL), 0.1 mmol/L CDHP, and an NADPH-generating system consisting of 1.3 mmol/L β-NADP^+, 3.3 mmol/L glucose-6-phosphate, 3.3 mmol/L magnesium chloride, and 0.4 units glucose-6-phosphate dehydrogenase in 100 mmol/L Tris (pH 7.4). Metabolic reaction by S9 and cytosol (each 2 mg protein/mL) was carried out in 100 mmol/L phosphate (pH 7.4) because TPase requires phosphate ions for catalyzing the reaction. […] The spontaneous degradation of FT to 5-FU was evaluated using enzymes inactivated by heating them at 100°C for 5 min.
Concentration of 5-FU was determined using a LC/MS/MS system. […] For quantification of 5-FU, the calibration curves were linear over the range 2–1000 ng/mL. […]

CYP2E1 = biological target: T1, CYP2E1 (Homo sapiens, UniProt P05181); experiment: 5-FU formation from FT enantiomers by cDNA-expressed CYP2E1 (kinetics, velocity, RAF contribution); assay type: in vitro ADME
T1 construct: purchased BD Gentest; host or cells: insect cells (baculovirus)
T1 sequence (P05181 whole entry): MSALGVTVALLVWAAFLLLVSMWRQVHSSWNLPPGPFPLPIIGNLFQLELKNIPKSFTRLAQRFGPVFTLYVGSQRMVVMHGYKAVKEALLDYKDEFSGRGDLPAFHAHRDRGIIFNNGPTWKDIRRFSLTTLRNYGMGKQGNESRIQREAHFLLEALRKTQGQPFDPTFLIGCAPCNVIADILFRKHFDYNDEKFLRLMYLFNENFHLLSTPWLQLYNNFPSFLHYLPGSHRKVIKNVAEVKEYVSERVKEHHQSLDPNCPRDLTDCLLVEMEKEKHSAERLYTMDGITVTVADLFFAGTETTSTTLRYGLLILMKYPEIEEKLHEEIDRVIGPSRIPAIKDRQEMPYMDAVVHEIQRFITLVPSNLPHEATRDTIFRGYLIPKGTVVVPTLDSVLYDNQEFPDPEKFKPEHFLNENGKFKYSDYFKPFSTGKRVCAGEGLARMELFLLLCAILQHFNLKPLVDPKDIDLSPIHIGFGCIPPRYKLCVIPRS
Procedure: as §1, §2, §3, §4
(§5) The contribution of CYPn to the metabolism of R- and S-FT at their concentration of 30 μmol/L was subsequently calculated using equation (4). [drawing 4] (4) VCYPn = 5-FU formation rate in cDNA-expressed CYPn.

[3] = set-up: method as in Damle et al. [2001]; settings: ref Damle et al. [2001], cited from earlier work
CYP1A2 = biological target: T2, CYP1A2 (Homo sapiens, UniProt P05177); experiment: 5-FU formation from FT enantiomers by cDNA-expressed CYP1A2 (kinetics, velocity, RAF contribution); assay type: in vitro ADME
T2 construct: purchased BD Gentest; host or cells: insect cells (baculovirus)
T2 sequence (P05177 2-516 limits assumed): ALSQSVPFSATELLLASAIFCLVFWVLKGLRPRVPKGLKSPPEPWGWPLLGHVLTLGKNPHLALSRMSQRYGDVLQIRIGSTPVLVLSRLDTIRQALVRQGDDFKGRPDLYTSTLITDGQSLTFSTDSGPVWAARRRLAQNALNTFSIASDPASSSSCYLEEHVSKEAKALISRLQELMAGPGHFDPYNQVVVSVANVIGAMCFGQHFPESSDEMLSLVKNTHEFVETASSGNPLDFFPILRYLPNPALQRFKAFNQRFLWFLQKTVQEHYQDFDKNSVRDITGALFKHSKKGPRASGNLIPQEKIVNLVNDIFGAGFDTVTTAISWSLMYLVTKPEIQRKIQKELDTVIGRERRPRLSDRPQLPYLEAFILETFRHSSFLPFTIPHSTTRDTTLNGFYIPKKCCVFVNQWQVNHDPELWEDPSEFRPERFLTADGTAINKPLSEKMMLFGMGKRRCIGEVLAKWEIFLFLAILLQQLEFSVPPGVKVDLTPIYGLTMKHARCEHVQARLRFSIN
Procedure: as §1, §2, §3, §4, §5

CYP2C19 = biological target: T3, CYP2C19 (Homo sapiens, UniProt P33261); experiment: 5-FU formation from FT enantiomers by cDNA-expressed CYP2C19 (kinetics, velocity, RAF contribution); assay type: in vitro ADME
T3 construct: purchased BD Gentest; host or cells: insect cells (baculovirus)
T3 sequence (P33261 whole entry): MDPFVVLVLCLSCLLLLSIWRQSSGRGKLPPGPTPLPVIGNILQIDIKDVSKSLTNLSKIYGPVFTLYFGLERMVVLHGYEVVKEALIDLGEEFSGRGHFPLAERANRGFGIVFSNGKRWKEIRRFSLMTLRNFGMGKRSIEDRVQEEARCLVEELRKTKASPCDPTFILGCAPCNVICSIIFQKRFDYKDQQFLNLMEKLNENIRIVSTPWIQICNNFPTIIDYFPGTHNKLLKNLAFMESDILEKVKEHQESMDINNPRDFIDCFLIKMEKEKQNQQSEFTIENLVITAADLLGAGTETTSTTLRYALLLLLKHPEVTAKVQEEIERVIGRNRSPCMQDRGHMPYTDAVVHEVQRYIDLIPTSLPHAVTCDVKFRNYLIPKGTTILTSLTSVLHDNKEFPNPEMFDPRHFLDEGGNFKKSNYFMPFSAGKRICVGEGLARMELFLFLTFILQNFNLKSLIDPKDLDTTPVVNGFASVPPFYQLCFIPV
Procedure: as §1, §2, §3, §4, §5

[4] = human hepatic microsomes, higher
[5] = cancer patients orally given FT

O=c1[nH]c(=O)n([C@H]2CCCO2)cc1F [R-FT]
Km1 ([1]; Mean ± SD of five human livers): 0.12 mmol/L and 0.12 ± 0.03 mmol/L
Vmax1 ([1]; Mean ± SD of five human livers): 838 ± 669 pmol/min/mg
CLint1 ([1]; Mean ± SD of five human livers): 6.2 ± 4.4 µL/min/mg
CLint ([1]; Mean ± SD of five human livers, total (for R-FT sum of high- and low-affinity components)): 6.4 ± 4.4 µL/min/mg
Km2 ([1]; Mean ± SD of human livers): 2.7 mmol/L and 2.7 ± 0.3 mmol/L
Vmax2 ([1]; Mean ± SD of human livers): 613 ± 236 pmol/min/mg
CLint (Vmax/Km) of high-affinity component compared with the low-affinity one [1, 4]: approximately 27 fold
CLint value of R-FT relative to that of S-FT [1, 4]: 8.8 fold
Km1 ([1]; microsomes HG32): 0.11 mmol/L
Vmax1 ([1]; microsomes HG32): 355 pmol/min/mg
CLint1 ([1]; microsomes HG32): 3.2 µL/min/mg
Km2 ([1]; microsomes HG32): 3.0 mmol/L
Vmax2 ([1]; microsomes HG32): 302 pmol/min/mg
CLint ([1]; microsomes HG32, total (for R-FT sum of high- and low-affinity components)): 3.3 µL/min/mg
Km1 ([1]; microsomes HH31): 0.14 mmol/L
Vmax1 ([1]; microsomes HH31): 1816 pmol/min/mg
CLint1 ([1]; microsomes HH31): 13 µL/min/mg
Km2 ([1]; microsomes HH31): 2.9 mmol/L
Vmax2 ([1]; microsomes HH31): 859 pmol/min/mg
CLint ([1]; microsomes HH31, total (for R-FT sum of high- and low-affinity components)): 13 µL/min/mg
Km1 ([1]; microsomes HH74): 0.093 mmol/L
Vmax1 ([1]; microsomes HH74): 146 pmol/min/mg
CLint1 ([1]; microsomes HH74): 1.6 µL/min/mg
Km2 ([1]; microsomes HH74): 2.7 mmol/L
Vmax2 ([1]; microsomes HH74): 709 pmol/min/mg
CLint ([1]; microsomes HH74, total (for R-FT sum of high- and low-affinity components)): 1.8 µL/min/mg
Km1 ([1]; microsomes HH81): 0.16 mmol/L
Vmax1 ([1]; microsomes HH81): 1162 pmol/min/mg
CLint1 ([1]; microsomes HH81): 7.1 µL/min/mg
CLint ([1]; microsomes HH81, total): 7.1 µL/min/mg
Km1 ([1]; microsomes HH94): 0.12 mmol/L
Vmax1 ([1]; microsomes HH94): 712 pmol/min/mg
CLint1 ([1]; microsomes HH94): 6.1 µL/min/mg
Km2 ([1]; microsomes HH94): 2.3 mmol/L
Vmax2 ([1]; microsomes HH94): 583 pmol/min/mg
CLint ([1]; microsomes HH94, total (for R-FT sum of high- and low-affinity components)): 6.4 µL/min/mg
contribution of the high-affinity component to the conversion to 5-FU ([1]; substrate concentration well below the Km value): over 90%
Vmax [2]: 761 pmol/min/mg
Km ([2]; read-out: apparent Km): 26 mM
CYP contribution (CYP2E1; CYP2E1, RAF method, 30 μmol/L): 4.3%
CLint (CYP2E1; cDNA-expressed CYP2E1): 2.3 nL min^−1 pmol^−1 CYP
Km (CYP2E1; cDNA-expressed CYP2E1): 3.6 ± 0.3 mM
Vmax (CYP2E1; cDNA-expressed CYP2E1): 8.4 ± 0.6 pmol min^−1 pmol^−1 CYP
maximum concentration (Cmax) ([3]; cancer patients after oral administration of UFT): 2957 ng/mL
Cmax ([3]; cancer patients after oral administration of UFT, read-out: maximum concentration (Cmax)): 14.8 µM
area under the plasma concentration–time curve [3, 5]: 10,800 ng h/mL
plasma elimination half-life [3, 5]: 2.4 h
CYP contribution (CYP1A2; CYP1A2, RAF method, 30 μmol/L): 7.5%
CLint (CYP1A2; cDNA-expressed CYP1A2): 4.9 nL min^−1 pmol^−1 CYP
Km (CYP1A2; cDNA-expressed CYP1A2): 1.1 ± 0.1 mM
Vmax (CYP1A2; cDNA-expressed CYP1A2): 5.6 ± 0.3 pmol min^−1 pmol^−1 CYP
CYP contribution (CYP2C19; CYP2C19, RAF method, 30 μmol/L): 0.59%
Km (CYP2C19; cDNA-expressed CYP2C19): > 10 mM
